# Experimental data reported in patent US7820876B2 (priority 2000, dated 2010).
# Entries after “also recorded” stand apart in the source; their conditions may differ.
# Columns and labels:
# [1] = system: nicotinic receptors in brain; assay type: binding, mouse
# [2] = system: nicotinic receptors of striatum membrane preparations; assay type: binding, mouse
# [3] = system: nicotinic acetylcholine receptors (nAChR) of striatal synaptosomes; assay type: biochemical, mouse
# [4] = system: nAChRs containing the α6 subunit (brain sections); assay type: binding, mouse
# [5] = system: cFos expression; conditions: mouse, in vivo
compound,measurement,setting,value
Clc1ccc(C2CC3CCC2N3)cn1 (stereo not drawn) [epibatidine],number of sites with high affinity for the ligand,[1],reduction; also recorded: no other difference could be detected
same,total number of epibatidine sites,[2],could not show a reduction
α-Conotoxin MII [αCtxMII],DA release peak induced by nicotine above the basal level in presence of αCtxMII,[3],50%
same,binding sites on brain sections,[4],presence of binding sites in three major anatomical systems
same,high affinity binding sites for the toxin,[4],complete disappearance
same,sites sensitive to αCtxMII as share of the total number of epibatidine sites,[2],20%
same,sites with high and low affinity for αCtxMII,[2],total disappearance
O=c1cccc2n1C[C@@H]1CNC[C@H]2C1 [cytisine],number of sites with high affinity for the ligand,[1],reduction; also recorded: no other difference could be detected
α-bungarotoxin,ligand bond (distribution of binding sites) in mutants versus Wt,[1],not modified
CN1CCCC1c1cccnc1 (stereo not drawn) [nicotine],change in the affinity of the dopamine release response to nicotine (dose-response curve),[3],loss of affinity of an order of magnitude; also recorded: drop of one order of magnitude
same,dopamine release peak induced by nicotine,[3],50%
same,effect of nicotine on dopamine release,[3],completely absent
same,increase in dopamine release over the basal level,[3],about 100%
same,number of sites with high affinity for the ligand,[1],reduction; also recorded: no other difference could be detected
same,activation of cFos expression in response to nicotine,[5],absence of activation
